We go through 24 compounds from patent US20250163057A1, “DCN-1 MODULATING COMPOUNDS AND METHODS OF USE THEREOF” (Cellarity, Inc., priority 2023, published 2025).

SMILES strings stand for the structures. Read-outs that look alike come from different tables or passages of the source. Some results are limits rather than exact numbers.

The target in experiment [1] is DCN1 protein (Homo sapiens (Human), UniProt Q96GG9). The experiment can be described thus: Intact Protein MS Analysis with the RapidFire-TOF System (covalent adduct formation). The format is binding. As to conditions: MS Emax; 400 nM DCN1, 3 hours at room temperature. Here is the method:
An MS assay was performed to evaluate the ability of the compounds to covalently modify DCN-1.
DCN1 protein, His-TEV-DCN1, were expressed in E. Coli. The His-tagged protein was first purified with an Ni-NTA column. The His-tag was cleaved using His-tag TEV protease and the His-tags were removed using a second Ni-NTA column. Protein purity was verified with SDS-PAGE and intact MS. DCN1 was dissolved in a buffer containing 25 mM Tris-HCl, 200 mM NaCl, and 1 mM DTT at 400 nM. 11 concentrations of compounds were added to the DCN1 solution and incubated at room temperature for 3 hours, unless otherwise specified. The reaction plates were quenched by adding 0.2% formic acid. […] The cartridge was re-equilibrated with loading buffer for 1 second before collection of the next sample. The Q-TOF was operated in TOF-only positive ionization mode set to the following parameters: Gas Temp=350 C, Drying Gas=7 l/min, Nebulizer=50 psi, Sheath Gas Temp=400 C, Sheath Gas Flow=12 l/min, Vcap=4000 V, Nozzle Voltage=1000 V, Fragmentor=125 V, Skimmer=65 V and Oct 1 RF Vpp=750V. Raw MS data files were deconvoluted and analyzed using the Agilent MassHunter Bioconfirm software package to identify both parent protein and expected compound adduct mass signatures.

For experiment [2], the target named is DCN1 (DCUND1) protein PONY domain (Homo sapiens (Human), UniProt Q96GG9). Briefly: TR-FRET assay, DCN1 binding with FAM-labeled probe. The method, boiled down:
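TR-FRET ratio (Tb-DCN1 to FAM-probe) read at 1, 5 and 24 hrs after compound addition. Protein: recombinant PONY domain from E. coli, biotinylated and coupled to streptavidin terbium. Either 5 nM DCN1 with 20 nM FAM-probe, or 0.31 nM DCN1 with 100 nM FAM-labelled plus 800 nM unlabelled probe.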

For experiment [3], the system named is Cullin-3 (CUL3) neddylation. Briefly: AlphaLISA assay for Cullin-3 (CUL3) neddylation in TF 1 cells. The format is cell-based. The note with it: 3 hours treatment; for IC50: Homo sapiens. The method, boiled down:
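TF 1 cells in unsupplemented IMDM treated with compound concentrations for 3 h, then lysed. CUL3 neddylation detected by AlphaLISA (biotinylated anti-NEDD8, anti-CUL3 acceptor beads overnight, streptavidin donor beads 1 h); normalized to vehicle (0%) and 1 μM DI-1548 (100%), IC50 from Hill fits.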

The mark [4] stands for this setting: 24 hr after treatment with compound, read-out: TR FRET IC50 24 hr.
The mark [5] stands for this setting: TR FRET IC50 1 hr (nM), 1 hr after treatment with compound.
The mark [6] stands for this setting: read-out: TR FRET IC50 1 hr, 1 hr after treatment with compound.

Sequence of DCN1 (DCUND1) protein PONY domain (Q96GG9 60-248): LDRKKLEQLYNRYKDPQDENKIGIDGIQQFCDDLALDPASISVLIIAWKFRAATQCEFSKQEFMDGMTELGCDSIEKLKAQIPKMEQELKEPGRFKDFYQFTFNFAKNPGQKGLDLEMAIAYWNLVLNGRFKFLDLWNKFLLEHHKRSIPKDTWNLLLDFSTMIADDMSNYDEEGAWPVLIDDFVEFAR
Sequence of DCN1 protein (Q96GG9 whole entry): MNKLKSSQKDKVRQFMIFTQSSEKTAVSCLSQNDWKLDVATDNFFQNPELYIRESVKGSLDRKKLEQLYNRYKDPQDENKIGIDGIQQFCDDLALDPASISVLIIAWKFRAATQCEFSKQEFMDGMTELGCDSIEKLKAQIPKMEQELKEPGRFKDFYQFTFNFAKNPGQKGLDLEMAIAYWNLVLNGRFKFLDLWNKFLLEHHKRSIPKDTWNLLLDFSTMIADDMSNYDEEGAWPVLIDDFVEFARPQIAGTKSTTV

Turning to `CCN1C(=O)[C@@H](NC(=O)c2cccc(C(F)(F)F)c2)[C@@H](c2ccc(F)cc2)c2c(NC(=O)C(F)Cl)nn(-c3ccccc3)c21` (mixture of isomers) [Compound I-120], the “% Adduct Formation” value in experiment [1] is “+ (MS Emax % adduct formation greater than or equal to 0.0 and less than or equal to 30.0)”.
Consider `CCN1C(=O)[C@@H](NC(=O)c2cccc(C(F)(F)F)c2)[C@@H](c2ccc(F)cc2)c2c([C@@H](C)NC(=O)/C=C/C(F)(F)F)nn(-c3ccccc3)c21` (mixture of isomers) [Compound I-164], for which the “% Adduct Formation” value in experiment [1] was “+ (MS Emax % adduct formation greater than or equal to 0.0 and less than or equal to 30.0)”.
The same measure, in the same setting: the value for `CCN1C(=O)[C@@H](NC(=O)c2cccc(C(F)(F)F)c2)[C@@H](c2ccc(F)cc2)c2c([C@@H](C)NC(=O)/C=C/CN3CCOCC3)nn(-c3ccccc3)c21` (mixture of isomers) [Compound I-165] was “+ (MS Emax % adduct formation greater than or equal to 0.0 and less than or equal to 30.0)”.
In the case of `CCN1C(=O)[C@@H](NC(=O)c2cccc(C(F)(F)F)c2)[C@@H](c2ccc(F)cc2)c2c([C@@H](C)NC(=O)C3=CCCC3)nn(-c3ccccc3)c21` (mixture of isomers) [Compound I-166], in experiment [1], the “% Adduct Formation” value is “+ (MS Emax % adduct formation greater than or equal to 0.0 and less than or equal to 30.0)”.
Regarding `CCN1C(=O)[C@@H](NC(=O)c2cccc(C(F)(F)F)c2)[C@@H](c2ccc(F)cc2)c2c([C@@H](C)NC(=O)COc3c(F)c(F)cc(F)c3F)nn(-c3ccccc3)c21` (mixture of isomers) [Compound I-168], in experiment [1], the “% Adduct Formation” value is “+ (MS Emax % adduct formation greater than or equal to 0.0 and less than or equal to 30.0)”.
Turning to `C=CC(=O)N[C@H](C)c1nn(-c2ccccc2)c2c1[C@H](c1ccc(F)cc1)[C@H](NC(=O)c1cccc(C(F)(F)F)c1)C(=O)N2CC` (mixture of isomers) [Compound I-174], the “% Adduct Formation” value in experiment [1] is “+ (MS Emax % adduct formation greater than or equal to 0.0 and less than or equal to 30.0)”.
As to `CCN1C(=O)[C@@H](NC(=O)c2cccc(C(F)(F)F)c2)[C@@H](c2ccc(F)cc2)c2c([C@H](C)NC(=O)CCl)nn(-c3ccccc3)c21` (mixture of isomers) [Compound I-175], the “% Adduct Formation” value in experiment [1] was “+ (MS Emax % adduct formation greater than or equal to 0.0 and less than or equal to 30.0)”.
For `C=C(C)C(=O)N[C@H](C)c1nn(-c2ccccc2)c2c1[C@H](c1ccc(F)cc1)[C@H](NC(=O)c1cccc(C(F)(F)F)c1)C(=O)N2CC` (mixture of isomers) [Compound I-191], in experiment [1], the “% Adduct Formation” value is “+ (MS Emax % adduct formation greater than or equal to 0.0 and less than or equal to 30.0)”.
As to `CCN1C(=O)[C@H](NC(=O)c2cccc(C(F)(F)F)c2)[C@H](C2CC2)c2c(C(=O)N(C)C(C)C#N)nn(-c3ccccc3)c21` (some centres unmarked) [Compound I-676], the IC50 is 1000 to 3000 nM in experiment [2] (setting [4]); 1000 to 3000 nM in experiment [2] (setting [5]); more than 1000 nM in experiment [3] (TF-1, 3 h).
As for `CCN1C(=O)[C@H](NC(=O)c2cccc(C(F)(F)F)c2)[C@H](c2ccc(F)cc2)c2c(C(=O)N3CCC[C@H]3C#N)nn(-c3cccc(OCCCN4CCN(C5COC5)CC4)c3)c21` [Compound I-681], the IC50 in experiment [2] (setting [4]) is 1000 to 3000 nM; in experiment [2] (setting [5]), 1000 to 3000 nM; in experiment [3] (TF-1, 3 h) it was more than 1000 nM.
As for `CCN1C(=O)[C@@H](NC(=O)c2cccc(C(F)(F)F)c2)[C@@H](C2CC2)c2c(C(=O)N(CC#N)C3CC3)nn(C3CCOCC3)c21` [Compound I-682], the IC50 in experiment [2] (setting [4]) is not above 200 nM; in experiment [2] (setting [5]) it was 200 to 1000 nM; in experiment [3] (TF-1, 3 h), not above 100 nM.
As for `CCN1C(=O)[C@@H](NC(=O)c2cccc(C(F)(F)F)c2)[C@@H](C2CC2)c2c(C(=O)N(CC#N)CCCN(C)C)nn(C3CCOCC3)c21` [Compound I-683], the IC50 in experiment [2] (setting [4]) is not above 200 nM; in experiment [2] (setting [5]) it was 200 to 1000 nM; in experiment [3] (TF-1, 3 h) it was not above 100 nM.
Take `CCN1C(=O)[C@@H](NC(=O)c2ccn(C(F)(F)F)n2)[C@@H](c2ccc(F)cc2)c2c(C(=O)N3CCN(C)CC3C#N)nn(-c3ccccc3)c21` (stereo partly drawn) [Compound I-684, N-((4S,5S)-3-(2-cyano-4-methylpiperazine-1-carbonyl)-7-ethyl-4-(4-fluorophenyl)-6-oxo-1-phenyl-4,5,6,7-tetrahydro-1H-pyrazolo[3,4-b]pyridin-5-yl)-1-(trifluoromethyl)-1H-pyrazole-3-carboxamide]: the IC50 is not above 200 nM in experiment [2] (setting [4]); not above 200 nM in experiment [2] (setting [6]); not above 100 nM in experiment [3] (TF-1, 3 h).
In the case of `CCN1C(=O)[C@@H](NC(=O)c2cccc(C(F)(F)F)c2)[C@@H](c2ccc(F)cc2)c2c(COCC#N)nn(-c3ccccc3)c21` [Compound I-685], the IC50 was not above 200 nM in experiment [2] (setting [4]); not above 200 nM in experiment [2] (setting [6]); 100 to 1000 nM in experiment [3] (TF-1, 3 h).
On to `CCN1C(=O)[C@@H](NC(=O)c2cccc(C(F)(F)F)c2)[C@@H](C2CC2)c2c(C(=O)N3CCC[C@H]3C#N)nn(-c3ccccc3)c21` [Compound I-686], for which the IC50 in experiment [2] (setting [4]) was not above 200 nM; in experiment [2] (setting [5]), 1000 to 3000 nM. The “Neddylation IC50 (nM)” value in experiment [3] is reported as “+ +”.
Turning to `CCN1C(=O)[C@@H](NC(=O)c2cccc(C(F)(F)F)c2)[C@@H](c2ccc(F)cc2)c2c(C(=O)N3CC[C@H](F)[C@H]3C#N)nn(C3CCOCC3)c21` [Compound I-694, N-((4S,5S)-3-((2R,3S)-2-cyano-3-fluoropyrrolidine-1-carbonyl)-7-ethyl-4-(4-fluorophenyl)-6-oxo-1-(tetrahydro-2H-pyran-4-yl)-4,5,6,7-tetrahydro-1H-pyrazolo[3,4-b]pyridin-5-yl)-3-(trifluoromethyl)benzamide], the IC50 is not above 200 nM in experiment [2] (setting [4]); not above 200 nM in experiment [2] (setting [6]); not above 100 nM in experiment [3] (TF-1, 3 h).
For the compound `CCN1C(=O)[C@@H](NC(=O)c2c(Cl)ccc(OC)c2F)[C@@H](C2CC2)c2c(C(=O)N3[C@H](C#N)C[C@H]4C[C@H]43)nn(C3CCOCC3)c21` [Compound I-697], the IC50 was 1000 to 3000 nM in experiment [2] (setting [4]); 1000 to 3000 nM in experiment [2] (setting [5]); more than 1000 nM in experiment [3] (TF-1, 3 h).
Take `CCN1C(=O)[C@@H](NC(=O)C(C2CC2)C2CC2)[C@@H](C2CC2)c2c(C(=O)N3[C@H](C#N)C[C@H]4C[C@H]43)nn(C3CCOCC3)c21` [Compound I-699]: the IC50 in experiment [2] (setting [4]) was 1000 to 3000 nM; in experiment [2] (setting [5]), 1000 to 3000 nM; in experiment [3] (TF-1, 3 h), more than 1000 nM.
With `CCN1C(=O)[C@@H](NC(=O)c2cccc(C(F)(F)F)c2)[C@@H](C2CC2)c2c(C(=O)N3[C@H](C#N)CC[C@@H]3C)nn(C3CCOCC3)c21` [Compound I-700], the IC50 was 200 to 1000 nM in experiment [2] (setting [4]); 1000 to 3000 nM in experiment [2] (setting [5]); 100 to 1000 nM in experiment [3] (TF-1, 3 h).
`CCN1C(=O)[C@@H](NC(=O)c2cccc(C(F)(F)F)c2)[C@@H](C2CC2)c2c(C(=O)N(CC#N)C3CC3)nn(C3CC3)c21` [Compound I-702]: the IC50 in experiment [2] (setting [4]) is 200 to 1000 nM; in experiment [2] (setting [5]), 1000 to 3000 nM; in experiment [3] (TF-1, 3 h) it was 100 to 1000 nM.
For `CCN1C(=O)[C@@H](NC(=O)c2cccc(C(F)(F)F)c2)[C@@H](C2CC2)c2c(C(=O)N3[C@@H](C#N)C[C@@H]4C[C@@H]43)nn(C3CCOCC3)c21` [Compound I-703, N-((4S,5S)-3-((1S,3R,5S)-3-cyano-2-azabicyclo[3.1.0]hexane-2-carbonyl)-4-cyclopropyl-7-ethyl-6-oxo-1-(tetrahydro-2H-pyran-4-yl)-4,5,6,7-tetrahydro-1H-pyrazolo[3,4-b]pyridin-5-yl)-3-(trifluoromethyl)benzamide] the same measures were 1000 to 3000 nM, 1000 to 3000 nM and more than 1000 nM.
For `CCN1C(=O)[C@@H](NC(=O)c2ccc3nn[nH]c3c2)[C@@H](C2CC2)c2c(C(=O)N3[C@H](C#N)C[C@H]4C[C@H]43)nn(C3CCOCC3)c21` [Compound I-705] the same measures were 1000 to 3000 nM, 1000 to 3000 nM and more than 1000 nM.
With `CCN1C(=O)[C@@H](NC(=O)c2ccc3snnc3c2)[C@@H](C2CC2)c2c(C(=O)N3[C@H](C#N)C[C@H]4C[C@H]43)nn(C3CCOCC3)c21` [Compound I-706], the IC50 is 200 to 1000 nM in experiment [2] (setting [4]); 1000 to 3000 nM in experiment [2] (setting [5]); not above 100 nM in experiment [3] (TF-1, 3 h).
As for `CCN1C(=O)[C@@H](NC(=O)c2cccc3ccoc23)[C@@H](C2CC2)c2c(C(=O)N3[C@H](C#N)C[C@H]4C[C@H]43)nn(C3CCOCC3)c21` [Compound I-707], the figures for the IC50 in experiment [2] (setting [4]), in experiment [2] (setting [6]) and in experiment [3] were not above 200 nM, not above 200 nM and not above 100 nM, respectively.

The IC50 is the point on the concentration scale where inhibition reaches its midpoint.
